How the values were obtained:
[1] = Azoreduction after oral administration: distribution of product and UR-12715 in faeces, study in rats; assay type: in vivo, Sprague-Dawley rats; conditions: for relative percentage of Product (administered compound) found in faeces: female rats, 50 mg/kg oral, suspension in 0.2% CMC, mean of 3; for azoreduction after oral administration: rats
Procedure: (§1) The level of azoreduction has been studied by determining the distribution of UR-12746 and UR-12715 in faeces after the oral administration of UR-12746 and its sodium salt in rats and monkeys.
For the study in rats, 6 female Sprague-Dawley rats weighing between 169 and 185 g were used. UR-12746 and the sodium salt of UR-12746 (polymorph I) were orally administered to three rats each as a suspension in 0.2% carboxymethylcelulose (CMC), at a dose of 50 mg/kg (100 mg of test compound/10 mL of 0.2% CMC).
The rats were placed in metabolic cages, so that urine and faeces could be separately collected, and faeces were collected during the periods 0-24 h and 24-48 h. The faeces collected in the same period were weighted and crumbled. Water was added (2 mL of water/g of faeces) and the paste obtained was stirred to homogeneity. The total weight of the homogenate was then determined.
An aliquot of this homogenate (about 2 g) was mixed with 4 mL of MeOH, stirred in a Vortex and centrifuged for 10 minutes at 4500 rpm (3000 g). The supernatant was filtered through a 0.45 μm filter, and the concentrations of the administered product and metabolite present in the sample were determined by a HPLC chromatographic method with gradient elution and ultraviolet detection, under the conditions detailed below:
The level of azoreduction was determined from the amounts of product and UR-12715 recovered in faeces. The relative percentage of the amounts corresponding to the product (UR-12746 or sodium salt of UR-12746) and to the metabolite (UR-12715) found in faeces after oral administration are shown in Table 3. Results are given as the mean values.

[2] = Azoreduction after oral administration: distribution of product and UR-12715 in faeces, study in monkeys; assay type: in vivo, Cynomolgus monkeys; conditions: for relative percentage of Product (administered compound) found in faeces: 100 mg/kg p.o. (UR-12746 suspension in 0.2% CMC; sodium salt capsules)
Procedure: as §1
6 Cynomolgus monkeys were used for this study. Each test product was administered to three monkeys, respectively. UR-12746 was administered as a suspension in 0.2% CMC, at a dose of 100 mg/kg p.o. (1000 mg UR-12746/10 mL of 0.2% CMC), whereas the sodium salt of UR-12746 (polymorph I) was administered as individualized capsules for each animal at a dose of 100 mg/kg p.o.
The monkeys were placed in metabolic cages, so that urine and faeces could be separately collected, and faeces corresponding to the periods 0-24 h, 24-48 h and 48-72 h were collected.
The treatment of the faeces and the determination of the amount of administered product and metabolite present in the samples were carried out following the same procedure described above for the study in rats.
As in the rat study, the azoreduction level was determined from the amounts of product and UR-12715 recovered in faeces.

| SMILES | relative percentage of Product (administered compound) found in faeces ([1]; faeces 0-24 h) [%] | relative percentage of Product (administered compound) found in faeces ([1]; faeces 0-48 h) [%] | relative percentage of Product (administered compound) found in faeces ([1]; faeces 24-48 h) [%] | azoreduction after oral administration [1] | relative percentage of Product (administered compound) found in faeces ([2]; faeces 0-24 h) [%] | relative percentage of Product (administered compound) found in faeces ([2]; faeces 0-72 h) [%] | relative percentage of Product (administered compound) found in faeces ([2]; faeces 24-48 h) [%] | relative percentage of Product (administered compound) found in faeces ([2]; faeces 48-72 h) [%] | azoreduction (metabolization in the colon) after oral administration [2] |
| --- | --- | --- | --- | --- | --- | --- | --- | --- | --- |
| Cc1nc2cnccc2n1CC1CCN(C(=O)/C=C(/c2ccccc2)c2ccc(N=Nc3ccc(O)c(C(=O)O)c3)cc2)CC1 [UR-12746, (Z)-2-hydroxy-5-[[4-[3-[4-[(2-methyl-1H-imidazo[4,5-c]pyridin-1-yl)methyl]-1-piperidinyl]-3-oxo-1-phenyl-1-propenyl]phenyl]azo]benzoic acid] | 78.8 | 76.1 | 52.5 | 24% | >99 | >99 | >99 | >99 | no azoreduction |
| Cc1nc2cnccc2n1CC1CCN(C(=O)/C=C(/c2ccccc2)c2ccc(N=Nc3ccc(O)c(C(=O)[O-])c3)cc2)CC1.[Na+] [Sodium salt of UR-12746, sodium salt of (Z)-2-hydroxy-5-[[4-[3-[4-[(2-methyl-1H-imidazo[4,5-c]pyridin-1-yl)methyl]-1-piperidinyl]-3-oxo-1-phenyl-1-propenyl]phenyl]azo]benzoic acid] | 21.1 | 20.8 | 12.1 | around 79% | 12.6 | 9.7 | 6.5 | 5.0 | around 90% |
